Tests used:
[1] = system: Hdy-HIF-1α; test: Immunoblot of HIF-1α / hydroxylated HIF-1α levels in HeLa cells; format: cell-based, Human; conditions: HeLa; for protein levels of hydroxylated HIF-1α (Hdy-HIF-1α): 1 µM, 10 h; for stabilization of Hdy-HIF-1α: 100 µM
Procedure: (§1) Cell culture. Human cell lines HeLa, U2OS and HEK 293, purchased from ATCC, were propagated in DMEM supplemented with 10% fetal bovine serum (FBS), L- glutamine, 100 μg ml^−1 of penicillin/streptomycin at 37 °C and 5% CO2. Cells were maintained for no more than 30 passages. All cell lines were routinely tested for mycoplasma contamination using MycoAlert kit from Lonza. For compound treatment experiments, cells were transferred in six-well plates with either 3 × 10^5 or 5 × 10^5 cells per well in 2 ml of media. At 80% confluence, cells were treated with compounds at the desired concentration, reaching final DMSO concentration of 0.1% v/v. Cells were incubated at 37 °C and 5% CO2 for the desired time before harvesting.
(§2) Immunoblotting. Cells were lysed in lysis buffer (20 mM Tris pH 8, 150 mM NaCl, 1% Triton × 100) and a protease inhibitor cocktail (Roche) per 10 ml buffer. For protein extracts, the dishes were placed on ice. The media was aspirated and the tissue layer washed twice with ice-cold phosphate buffer saline (PBS). Lysis buffer (120 μl) was added and the cells detached from the surface with a cell scraper. After removal of the insoluble fraction by centrifugation, the protein concentration of the supernatant was determined by Pierce™ Coomassie (Bradford) Protein Assay Kit. Protein extracts were fractionated by SDS-PAGE on 4–12% Tris-Acetate NuPage® Novex® (Life Technologies) polyacrylamide gels and transferred to a nitrocellulose membrane using wet transfer. The membrane was then blocked with 5 % w/v Bovine serum albumin (BSA) in Tris-buffered saline (TBS) with 0.1% w/v Tween-20. For detecting proteins the following primary antibodies in the given concentrations were used: anti-β-Actin (Cell Signaling Technology, 4970S, 13E5) 1:2000, anti-VHL (Cell Signaling Technology, #68547) 1:1000, anti-Hif-1α (BD Biosciences, 610959, clone 54) 1:1,000, anti-hydroxy-HIF-1α (Hyp564) (Cell Signaling Techonology; #3434) 1:1,000, anti-PHD2 (Bethyl Laboratories; A300-322A) 1:1,000, anti-PHD3 (Bethyl Laboratories; A300-327A) 1:1000, anti-CRBN (Proteintech; 11435-1-AP) 1:1,000. Following incubation with a horseradish peroxidase-conjugated secondary antibody (Cell Signaling Technology), the signal was developed using enhanced chemiluminescence (ECL) Western Blotting Detection Kit (Amersham) on Amersham Hyperfilm ECL film (Amersham). Band quantification was performed using ImageJ software and reported as relative amount as ratio of the each protein band relative to the lane’s loading control. The values obtained were then normalized to 0.1% DMSO vehicle control. See Supplementary Fig. 12 for full-scanned images of western-blots shown in the main text figures.

[2] = target: T1, V19CB (Homo sapiens, UniProt P40337); test: Size-exclusion chromatography (SEC) of complex formation with V19CB; format: binding; conditions: compound 30 µM; for shift of VCB peak / ternary complex formation in SEC: VCB 50 µM
T1 construct: made in house
T1 sequence (P40337 54-213): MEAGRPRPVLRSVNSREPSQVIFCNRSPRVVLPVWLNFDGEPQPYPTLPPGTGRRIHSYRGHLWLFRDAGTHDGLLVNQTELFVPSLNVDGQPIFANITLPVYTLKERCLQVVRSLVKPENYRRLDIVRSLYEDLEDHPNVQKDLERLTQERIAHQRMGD
T1 sequence (Q15369 17-112 partner limits assumed): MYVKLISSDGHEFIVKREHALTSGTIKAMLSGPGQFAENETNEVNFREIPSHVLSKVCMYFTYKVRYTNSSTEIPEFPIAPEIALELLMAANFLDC
T1 sequence (Q15370 1-104 partner limits assumed): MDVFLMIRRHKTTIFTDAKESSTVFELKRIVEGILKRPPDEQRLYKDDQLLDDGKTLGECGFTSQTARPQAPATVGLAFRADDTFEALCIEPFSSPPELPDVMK
Procedure: Protein expression and purification. Human proteins VHL (UniProt accession number: P40337), ElonginC (Q15369), and ElonginB (Q15370) were used for all protein expression. The short-isoform-containing VCB complex (V19CB) was expressed, purified and stored as described previously. For expression of the long-isoform-containing VCB complex (V30CB), N-terminally His6-tagged VHL (1–213), ElonginC (17–112) and ElonginB (1–104) were co-expressed in Escherichia coli BL21(DE3) at 20 °C for 18 h using 0.5 mM isopropyl β-D-1-thiogalactopyranoside (IPTG). E. coli cells were resuspended in binding buffer (50 mM HEPES, pH 8.0, 500 mM NaCl, 10 mM imidazole and 5 mM β-mercaptoethanol), lysed using a pressure cell homogenizer (Stansted Fluid Power), and lysate clarified by centrifugation. The supernatant was loaded onto a HisTrap FF affinity column (GE Healthcare) equilibrated with binding buffer, and bound protein was eluted using an imidazole gradient. The His6 tag was removed using thrombin protease (Sigma), and the untagged complex was dialyzed into binding buffer. V30CB was then loaded onto the HisTrap FF column a second time, allowing impurities to bind as the complex eluted without binding. The flow-through was dialyzed using a low-salt buffer (20 mM HEPES, pH 8.0, 25 mM NaCl and 1 mM DTT) and then loaded onto a Resource Q anion exchange column (GE Healthcare); bound protein was eluted across a linear NaCl gradient. V30CB was then additionally purified by size-exclusion chromatography using a Superdex-75 16/600 column (GE Healthcare) equilibrated with 20 mM HEPES, pH 7.5, 100 mM sodium chloride and 1 mM TCEP. All chromatography purification steps were performed using Äkta FPLC purification systems (GE Healthcare).
Size-exclusion chromatography (SEC). SEC experiments were carried out in a ÄKTA pure system (GE Healthcare) at room temperature. The oligomeric state of the VCB complex in solution was analyzed by gel filtration in a buffer containing 20 mM Bis-Tris (pH 7), 150 mM NaCl and 1 mM 1,4-dithiothreitol (DTT) using a Superdex 200 Increase 10/300 GL column (GE Healthcare) calibrated with globular proteins of known molecular weight (GE Healthcare, 28-4038-41/42). […] Sample volume for each injection was 200 µl, and the flow rate was 0.5 ml min^−1. Peak elution was monitored using ultraviolet absorbance at 280 nm.

[3] = target: pVHL19 (Homo sapiens, UniProt P40337); test: Immunoblot of pVHL19 protein level in HeLa cells after compound treatment; format: cell-based; set-up: endogenous in cells; host or cells: HeLa; conditions: 1 µM, 10 h, DMSO = 100, Fig. 4a, read-out: pVHL19 band quantification normalized to 0.1% DMSO
pVHL19, sequence (P40337 54-213): as the sequence (P40337 54-213) above
pVHL19, sequence (Q15369 whole entry partner): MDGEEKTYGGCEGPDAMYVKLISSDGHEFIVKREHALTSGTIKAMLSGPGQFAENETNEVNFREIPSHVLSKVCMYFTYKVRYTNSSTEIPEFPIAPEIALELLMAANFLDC
pVHL19, sequence (Q15370 whole entry partner): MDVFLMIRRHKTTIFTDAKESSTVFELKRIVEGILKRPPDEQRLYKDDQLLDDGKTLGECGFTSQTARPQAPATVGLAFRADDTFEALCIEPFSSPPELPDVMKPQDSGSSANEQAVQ
Procedure: as §1, §2

SMILES | protein levels of hydroxylated HIF-1α (Hdy-HIF-1α) [1] | stabilization of Hdy-HIF-1α [1] | shift of VCB peak / ternary complex formation in SEC [2] | remaining activity at 1 µM [3] [%] | molecular weight of species in shifted SEC peak ([2]; V19CB 50 µM)
Cc1ncsc1-c1ccc(CNC(=O)[C@@H]2C[C@@H](O)CN2C(=O)[C@@H](NC(=O)COCCOCCOCCOCCOCC(=O)N[C@H](C(=O)N2C[C@H](O)C[C@H]2C(=O)NCc2ccc(-c3scnc3C)cc2)C(C)(C)C)C(C)(C)C)cc1 [CM10, N ^1 ,N ^17-bis((S)-1-((2S,4R)-4-hydroxy-2-((4-(4-methylthiazol-5-yl)benzyl)carbamoyl)pyrrolidin-1-yl)-3,3-dimethyl-1-oxobutan-2-yl)-3,6,9,12,15-pentaoxaheptadecanediamide] | detectable albeit low increase | comparable with the effect obtained with VH032 alone | formation of a ternary complex eluting at identical retention volume when compared to CM11 | 92 | –
Cc1ncsc1-c1ccc(CNC(=O)[C@@H]2C[C@@H](O)CN2C(=O)[C@@H](NC(=O)COCCOCCOCCOCCOCCOCC(=O)N[C@H](C(=O)N2C[C@H](O)C[C@H]2C(=O)NCc2ccc(-c3scnc3C)cc2)C(C)(C)C)C(C)(C)C)cc1 [CM11, N ^1 ,N ^20-bis((S)-1-((2S,4R)-4-hydroxy-2-((4-(4-methylthiazol-5-yl)benzyl)carbamoyl)pyrrolidin-1-yl)-3,3-dimethyl-1-oxobutan-2-yl)-3,6,9,12,15,18-hexaoxaicosanediamide] | detectable albeit low increase | comparable with the effect obtained with VH032 alone | – | 91 | ~ 90 kDa
Cc1ncsc1-c1ccc(CNC(=O)[C@@H]2C[C@@H](O)CN2C(=O)[C@@H](NC(=O)COCCOCCOCCOCC(=O)N[C@H](C(=O)N2C[C@H](O)C[C@H]2C(=O)NCc2ccc(-c3scnc3C)cc2)C(C)(C)C)C(C)(C)C)cc1 [CM09, N ^1 ,N ^14-bis((S)-1-((2S,4R)-4-hydroxy-2-((4-(4-methylthiazol-5-yl)benzyl)carbamoyl)pyrrolidin-1-yl)-3,3-dimethyl-1-oxobutan-2-yl)-3,6,9,12-tetraoxatetradecanediamide] | – | comparable with the effect obtained with VH032 alone | formation of a ternary complex eluting at identical retention volume when compared to CM11 | 102 | –
